Results reported in PubChem BioAssay AID330 (DTP/NCI, 2004).
Values joined by “and” are separate entries in the source; they are usually repeats but may differ in a detail not shown here. Equal values may be shown once. Toxic doses and inconclusive results are not listed. Rule for the calls: active = survival T/C of 150% or more; inactive = T/C below 125% in these data.

System: P388 leukemia ip, CD2F1 mice, survival T/C
Experiment: NCI In Vivo Anticancer Drug Screen. Data for tumor model P388 Leukemia (intraperitoneal) in CD2F1 (CDF1) mice
Conditions: endpoint: median survival time, higher = longer survival
How it was run: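 Mice carrying the transplanted tumor received test compound or vehicle. Survival was recorded in each group, and the value is the treated-group measurement divided by that of the vehicle-treated control group.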

[1] = dose: 50.0 mg/kg/injection, schedule: Q01DX009 (ip), vehicle: Klucel (hydroxypropylcellulose) (HPC)
[2] = dose: 100.0 mg/kg/injection, schedule: Q01DX009 (ip), vehicle: Klucel (hydroxypropylcellulose) (HPC)
[3] = dose: 50.0 mg/kg/injection, schedule: Q01DX005 (ip), vehicle: Klucel (hydroxypropylcellulose) (HPC)
[4] = dose: 100.0 mg/kg/injection, schedule: Q01DX005 (ip), vehicle: Klucel (hydroxypropylcellulose) (HPC)

Measured: T/C

Cc1cc(O)c(C(=O)/C=C(\O)c2ccccc2)c(=O)o1
inactive: dose: 10.5 mg/kg/injection, schedule: Q01DX005 (ip), vehicle: Klucel (hydroxypropylcellulose) (HPC) 100 % of control | dose: 21.0 mg/kg/injection, schedule: Q01DX005 (ip), vehicle: Klucel (hydroxypropylcellulose) (HPC) 102 % of control | dose: 42.0 mg/kg/injection, schedule: Q01DX005 (ip), vehicle: Klucel (hydroxypropylcellulose) (HPC) 106 % of control | dose: 84.0 mg/kg/injection, schedule: Q01DX005 (ip), vehicle: Klucel (hydroxypropylcellulose) (HPC) 86 % of control

Nc1ccc(NC(=O)c2ccc([N+](=O)[O-])cc2)cc1
inactive: dose: 25.0 mg/kg/injection, schedule: Q01DX009 (ip), vehicle: other 115 % of control | dose: 50.0 mg/kg/injection, schedule: Q01DX009 (ip), vehicle: other 112 % of control | dose: 100.0 mg/kg/injection, schedule: Q01DX009 (ip), vehicle: other 106 % of control | dose: 200.0 mg/kg/injection, schedule: Q01DX009 (ip), vehicle: other 115 % of control | dose: 400.0 mg/kg/injection, schedule: Q01DX009 (ip), vehicle: other 123 % of control

O=S1(=O)CCN(CCCc2ccccc2)CC1
inactive: [1] 102 % of control | [2] 105 % of control | dose: 200.0 mg/kg/injection, schedule: Q01DX009 (ip), vehicle: Klucel (hydroxypropylcellulose) (HPC) 104 % of control

O=C1C=C(c2ccccc2)C(c2ccccc2)C1 (configuration not stated)
inactive: dose: 50.0 mg/kg/injection, schedule: Q01DX009 (ip), vehicle: saline with Tween-80 89 % of control | dose: 100.0 mg/kg/injection, schedule: Q01DX009 (ip), vehicle: saline with Tween-80 93 % of control | dose: 200.0 mg/kg/injection, schedule: Q01DX009 (ip), vehicle: saline with Tween-80 93 % of control | dose: 400.0 mg/kg/injection, schedule: Q01DX009 (ip), vehicle: saline with Tween-80 93 % of control

COc1ccc2ncc(COC(=O)NCCCl)c(COC(=O)NCCCl)c2c1
inactive: dose: 25.0 mg/kg/injection, schedule: Q01DX005 (ip), vehicle: Klucel (hydroxypropylcellulose) (HPC) 92 % of control | [3] 86 % of control | [4] 88 % of control | dose: 200.0 mg/kg/injection, schedule: Q01DX005 (ip), vehicle: Klucel (hydroxypropylcellulose) (HPC) 86 % of control

CCOC(=O)C(=O)Nc1ccccc1C#N
inactive: dose: 50.0 mg/kg/injection, schedule: Q01DX009 (ip), vehicle: saline + alcohol 105 % of control | dose: 100.0 mg/kg/injection, schedule: Q01DX009 (ip), vehicle: saline + alcohol 99 % of control | dose: 200.0 mg/kg/injection, schedule: Q01DX009 (ip), vehicle: saline + alcohol 101 % of control

CC1(C)C(=O)CCC2(C)C1CC(=O)C1(C)C2CCC2(C)C(c3ccoc3)OC(=O)C3OC321 (configuration not stated)
inactive: dose: 0.5 mg/kg/injection, schedule: Q01DX009 (ip), vehicle: Klucel (hydroxypropylcellulose) (HPC) 100 % of control and 102 % of control | dose: 1.0 mg/kg/injection, schedule: Q01DX009 (ip), vehicle: Klucel (hydroxypropylcellulose) (HPC) 102 % of control | dose: 2.0 mg/kg/injection, schedule: Q01DX009 (ip), vehicle: Klucel (hydroxypropylcellulose) (HPC) 92 % of control and 96 % of control | dose: 4.0 mg/kg/injection, schedule: Q01DX009 (ip), vehicle: Klucel (hydroxypropylcellulose) (HPC) 98 % of control and 93 % of control | dose: 8.0 mg/kg/injection, schedule: Q01DX009 (ip), vehicle: Klucel (hydroxypropylcellulose) (HPC) 98 % of control and 86 % of control

CC1(C)CC1(Cl)S(C)(=O)=O (configuration not stated)
inactive: dose: 100.0 mg/kg/injection, schedule: Q01DX001 (ip), vehicle: saline with Tween-80 106 % of control | dose: 200.0 mg/kg/injection, schedule: Q01DX001 (ip), vehicle: saline with Tween-80 105 % of control | dose: 400.0 mg/kg/injection, schedule: Q01DX001 (ip), vehicle: saline with Tween-80 100 % of control

CCCCCCCCCCCOCC(=O)O
inactive: [1] 98 % of control | [2] 92 % of control

Nc1nc2nn(-c3ccc(C(=O)NC(CCC(=O)O)C(=O)O)cc3)nc2c(=O)[nH]1 (configuration not stated)
inactive: dose: 12.5 mg/kg/injection, schedule: Q01DX009 (ip), vehicle: Klucel (hydroxypropylcellulose) (HPC) 95 % of control | dose: 25.0 mg/kg/injection, schedule: Q01DX009 (ip), vehicle: Klucel (hydroxypropylcellulose) (HPC) 94 % of control | [1] 94 % of control | [2] 96 % of control

O=C(CCN1CCC23c4c5ccc(O)c4OC2C(O)C=CC3C1C5)c1ccccc1 (configuration not stated)
inactive: [3] 88 % of control | [4] 99 % of control

Cc1cc(C)cc(C(=O)N=C(c2ccncc2)c2nc(-c3ccccc3)oc2O)c1
inactive: dose: 60.0 mg/kg/injection, schedule: Q01DX005 (ip), vehicle: saline with Tween-80 88 % of control | dose: 120.0 mg/kg/injection, schedule: Q01DX005 (ip), vehicle: saline with Tween-80 86 % of control | dose: 240.0 mg/kg/injection, schedule: Q01DX005 (ip), vehicle: saline with Tween-80 88 % of control
